In patent publication US20260234165A1, “MACROCYCLIC COMPOUNDS, PREPARATION METHOD THEREFOR, AND USE THEREOF” (GENFLEET THERAPEUTICS (SHANGHAI) INC., priority 2004, published 2026) one finds IC50 data, which are given here for eleven compounds.

The term IC50 denotes the concentration that inhibits the measured activity by half.

SMILES strings stand for the structures. Structures can show the parent of a compound that is named as a salt. Where two headings read alike, the source gives them in different places.

What all share (assay type): cell-based, human
Assay [1] concerns p-ERK in AsPC-1 cells (KRAS G12D mutation). Put plainly: Cell p-ERK assay (HTRF) in AsPC-1 cells. The gist of the method:
(§1)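 Cells are plated (AsPC-1 at 10000, NCI-H441 at 20000 per well) and cultured overnight. Next day compound is added in a 3.16-fold dilution series with 0.1% DMSO and left 3 h. After lysis, p-ERK antibodies incubate 4 h before HTRF reading and four-parameter IC50 fitting.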
In general terms: In TR-FRET formats the signal depends on donor and acceptor labels being close together.

Assay [2] has as its system AsPC-1 cells (KRAS G12D mutation). Put plainly: 3D cell proliferation assay (CellTiter Glo-3D), AsPC-1. Conditions: medium with 2% FBS, read-out: AsPC-1 AP IC50. In a few lines:
(§2)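 Luminescence read-out (CellTiter-Glo 3D) after 5-day compound exposure at 37 °C, 5% CO2. Cells: NCI-H441 and AsPC-1, 800/well, RPMI-1640 + 2% FBS, 0.1% DMSO final. IC50 by four-parameter fit of % inhibition against log concentration.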
A general note: ATP-based viability assays read luminescence as a measure of living cells.

A further assay concerns NCI-H441 cells. Put plainly: 3D cell proliferation assay (CellTiter Glo-3D), NCI-H441. Conditions: medium with 2% FBS, read-out: H441 AP IC50. In a few lines:
as §2

Assay [3] relates to p-ERK in NCI-H441 cells (KRAS G12V mutation). Briefly: Cell p-ERK assay (HTRF) in NCI-H441 cells. In a few lines: as §1
[4] abbreviates: Homo sapiens, ASPC1, 3 h, AsPC-1 cells, 3 h compound incubation, HTRF p-ERK T202/Y204, read-out: AsPC-1 p-ERK IC50.
Setting [5] is: Homo sapiens, ASPC1, 3D cell proliferation (CellTiter Glo-3D).
[6] abbreviates: Homo sapiens, NCI-H441, 3D cell proliferation (CellTiter Glo-3D).
The mark [7] stands for this setting: Homo sapiens, NCI-H441, 3 h, NCI-H441 cells, 3 h compound incubation, HTRF p-ERK T202/Y204, read-out: H441 p-ERK IC50.
Setting [8] is: AsPC-1 cells, 3 h compound incubation, HTRF p-ERK T202/Y204, read-out: AsPC-1 p-ERK IC50.
[9] abbreviates: 3D cell proliferation (CellTiter Glo-3D).
Setting [10] is: NCI-H441 cells, 3 h compound incubation, HTRF p-ERK T202/Y204, read-out: H441 p-ERK IC50.

For `CCn1c(-c2cc(N3CCN(C)CC3)cnc2[C@H](C)OC)c2c3cc(ccc31)-c1csc(n1)C[C@H](Nc1cc(C)cnn1)C(=O)N1CCC[C@H](N1)C(=O)OCC(C)(C)C2` [Compound Z559, (6^3S,4S,Z)-1^1-ethyl-(R3)-1^2-(2-((S)-1-methoxyethyl)-5-(4-methylpiperazin-1-yl)pyridin-3-yl)-10,10-dimethyl-4-((5-methylpyridazin-3-yl)amino)-6^1,6^2,6^3,6^4,6^5,6^6-hexahydro-1^1H-8-oxa-2(4,2)-thiazola-1(5,3)-indola-6(1,3)-pyridazinacycloundecaphane-5,7-dione], the IC50 in assay [1] (setting [4]) worked out at 45 nM; in assay [2] (setting [5]), 47.5 nM; in the assay with NCI-H441 cells (setting [6]) it was 17.5 nM; in assay [3] (setting [7]) it was 14.6 nM.

Take `CCn1c(-c2cc(N3CCN4CCOC[C@@H]4C3)cnc2[C@H](C)OC)c2c3cc(ccc31)-c1csc(n1)C[C@H](NC(=O)[C@H]1[C@H](C)[C@@H]1C)C(=O)N1CCC[C@H](N1)C(=O)OCC(C)(C)C2` [Compound Z72]: the IC50 in assay [1] (setting [8]) was 0.31 nM; in assay [2] (setting [9]) it was 0.88 nM; in the assay with NCI-H441 cells (setting [9]), 0.51 nM; in assay [3] (setting [10]) it was 0.31 nM.

Take `CO[C@@H](C)c1ncc(C#CCN2CCC2)cc1-c1c2c3cc(ccc3n1CC(F)(F)F)-c1csc(n1)C[C@H](NC(=O)[C@H]1[C@H](C)[C@@H]1C)C(=O)N1CCC[C@H](N1)C(=O)OCC(C)(C)C2` (atropisomer, axis not shown; (Ra)) [Compound Z362-2, (1r,2R,3S)—N-((6^3S,4S,Z)-1′-(5-(3-(azetidin-1-yl)prop-1-yn-1-yl)-(Ra)-2-((S)-1-methoxyethyl)pyridin-3-yl)-10,10-dimethyl-5,7-dioxo-1^1-(2,2,2-trifluoroethyl)-6^1,6^2,6^3,6^4,6^5,6^6-hexahydro-1^1H-8-oxa-2(4,2)-thiazola-1(5,3)-indola-6(1,3)-pyridazinacycloundecaphane-4-yl)-2,3-dimethylcyclopropane-1-carboxamide]: the IC50 in assay [1] (setting [4]) turned out to be 0.48 nM; in assay [2] (setting [5]), 0.82 nM; in the assay with NCI-H441 cells (setting [6]) it was 0.67 nM; in assay [3] (setting [7]) it was 0.71 nM.

Turning to `CO[C@@H](C)c1ncc(OCCN2CCOC3(CC3)C2)cc1-c1c2c3cc(ccc3n1CC(F)(F)F)-c1csc(n1)C[C@H](NC(=O)[C@H]1[C@H](C)[C@@H]1C)C(=O)N1CCC[C@H](N1)C(=O)OCC1(CC1)C2` [Compound Z350, (1r,2R,3S)—N-((3′S,4′S,Z)-2′-(5-(2-(4-oxa-7-azaspiro[2.5]octan-7-yl)ethoxy)-2-((S)-1-methoxyethyl)pyridin-3-yl)-5′,7′-dioxo-1′-(2,2,2-trifluoroethyl)spiro[cyclopropane-1,10′-8-oxa-2(4,2)-thiazola-1(5,3)-indola-6(1,3)-pyridazinacycloundecaphan]-4-yl)-2,3-dimethylcyclopropane-1-carboxamide], the IC50 is 16.3 nM in assay [1] (setting [4]), 53.4 nM in assay [2] (setting [9]), 19.7 nM in the assay on NCI-H441 cells (setting [9]) and 9.1 nM in assay [3] (setting [10]).

Consider `CCn1c(-c2cc(OCCN3CCS(=O)(=O)CC3)cnc2[C@H](C)OC)c2c3cc(ccc31)-c1csc(n1)C[C@H](NC(=O)[C@H]1[C@H](C)[C@@H]1C)C(=O)N1CCC[C@H](N1)C(=O)OCC(C)(C)C2` (atropisomer, axis not shown; (Ra)) [Compound Z469, (0r,2R,3S)—N-((6^3S,4S,Z)—(Ra)-1^2-(5-(2-(1,1-dioxidothiomorpholino)ethoxy)-2-((S)-1-methoxyethyl)pyridin-3-yl)-1^1-ethyl-10,10-dimethyl-5,7-dioxo-6^1,6^2,6^3,6^4,6^5,6^6-hexahydro-1^1H-8-oxa-2(4,2)-thiazola-1(5,3)-indola-6(1,3)-pyridazinacycloundecaphane-4-yl)-2,3-dimethylcyclopropane-1-carboxamide], for which the IC50 was 0.11 nM in assay [1] (setting [8]), 0.24 nM in assay [2] (setting [5]), 0.09 nM with NCI-H441 cells (setting [6]) and 0.35 nM in assay [3] (setting [10]).

With `CCn1c(-c2cc(N3CCN(C)CC3)cnc2[C@H](C)OC)c2c3cc(ccc31)-c1csc(n1)C[C@H](NC(=O)C(C)(C)F)C(=O)N1CCC[C@H](N1)C(=O)OCC(C)(C)C2` (atropisomer, axis not shown; (Ra)) [Compound Z66, N-((6^3S,4S,Z)-1^1-ethyl-(Ra)-1^2-(2-((S)-1-methoxyethyl)-5-(4-(methyl-d3)piperazin-1-yl)pyridin-3-yl)-10,10-dimethyl-5,7-dioxa-6^1,6^2,6^3,6^4,6^5,6^6-hexahydro-1^1H-8-oxa-2(4,2)-thiazola-1(5,3)-indola-6(1,3)-pyridazinacycloundecaphane-4-yl)-2-fluoro-2-methylpropanamide], the IC50 in assay [1] (setting [8]) was found to be 2.72 nM; in assay [2] (setting [9]), 20.9 nM; with NCI-H441 cells (setting [9]), 5.69 nM; in assay [3] (setting [10]), 4.26 nM.

Consider `CCn1c(-c2cc(C#CCN3CC(O)C3)cnc2[C@H](C)OC)c2c3cc(ccc31)-c1csc(n1)C[C@H](NC(=O)[C@H]1[C@H](C)[C@@H]1C)C(=O)N1CCC[C@H](N1)C(=O)OCC(C)(C)C2` [Compound Z1065, (2R,3S)—N-((6^3S,4S,Z)-1^1-ethyl-1^2-(5-(3-(3-hydroxyazetidin-1-yl)prop-1-yn-1-yl)-((S)-1-methoxyethyl)pyridin-3-yl)-10,10-dimethyl-5,7-dioxo-6^1,6^2,6^3,6^4,6^5,6^6-hexahydro-1^1H-8-oxo-2(4,2)-thiazola-1(5,3)-indola-6(1,3)-pyridazinacycloundecaphane-4-yl)-2,3-dimethylcyclopropane-1-carboxamide formate], for which the half-maximal inhibitory concentration (IC50) stood at 0.42 nM in assay [1] (setting [8]), 0.43 nM in assay [2] (setting [9]), 0.4 nM with NCI-H441 cells (setting [9]) and 0.31 nM in assay [3] (setting [10]).

As for `CCn1c(-c2cc(OCC3(CN4CCCOCC4)CC3)cnc2[C@H](C)OC)c2c3cc(ccc31)-c1csc(n1)C[C@H](NC(=O)[C@H]1[C@H](C)[C@@H]1C)C(=O)N1CCC[C@H](N1)C(=O)OCC1(CC1)C2` (atropisomer, axis not shown; (Ra)) [Compound Z498], the IC50 in assay [1] (setting [4]) is 10.9 nM; in assay [2] (setting [5]) it was 8.99 nM; in the assay on NCI-H441 cells (setting [6]), 5.58 nM; in assay [3] (setting [7]) it was 4.06 nM.

For `COCCn1c(-c2cc(C#CCN(C)C[Si](C)(C)C)cnc2[C@H](C)OC)c2c3cc(ccc31)-c1csc(n1)C[C@H](NC(=O)[C@H]1[C@@H]3COC[C@@H]31)C(=O)N1CCC[C@H](N1)C(=O)OCC(C)(C)C2` (atropisomer, axis not shown; (Ra)) [Compound Z1091, (1R,5S,6r)-N-((6^3S,4S,Z)-1^1-(2-methoxyethyl)-1^2-(Ra)-(2-((S)-1-methoxyethyl)-5-(3-(methyl((trimethylsilyl)methyl)amino)prop-1-yn-1-yl)pyridin-3-yl)-10,10-dimethyl-5,7-dioxo-6^1,6^2,6^3,6^4,6^5,6^6-hexahydro-1^1H-8-oxa-2(4,2)-thiazola-1(5,3)-indola-6(1,3)-pyridazinacycloundecaphane-4-yl)-3-oxabicyclo[3.1.0]hexane-6-carboxamide], the IC50 in assay [1] (Homo sapiens, ASPC1, 3 h, read-out: AsPC-1 p-ERK IC50(nM)) turned out to be 2.34 nM; in assay [2] (setting [5]) it was 1.67 nM; with NCI-H441 cells (Homo sapiens, 3D cell proliferation (CellTiter Glo-3D)) it was 2.01 nM; in assay [3] (Homo sapiens, NCI-H441, 3 h, read-out: H441 p-ERK IC50(nM)) it was 1.92 nM.

In the case of `CCn1c(-c2cc(OCCN3CCOC4(CC4)C3)cnc2[C@H](C)OC)c2c3cc(ccc31)-c1csc(n1)C[C@H](NC(=O)[C@H]1[C@H](C)[C@@H]1C)C(=O)N1CCC[C@H](N1)C(=O)OCC(C)(C)C2` (atropisomer, axis not shown; (Sa)) [Compound Z551, (1r,2R,3S)—N-((6^3R,4R,Z)—(Sa)-1^2-(5-(2-(4-oxa-7-azaspiro[2,5]octan-7-yl)ethoxy)-2-((S)-1-methoxyethyl)-3-ylpyridin)-1^1-ethyl-10,10-dimethyl-5,7-dioxo-6^1,6^2,6^3,6^4,6^5,6^6-hexahydro-1^1H-8-oxa-2(4,2)-thiazola-1(5,3)-indola-6(1,3)-pyridazinacycloundecaphane-4-yl)-2,3-dimethylcyclopropane-1-carboxamide], the half-maximal inhibitory concentration (IC50) in assay [1] (setting [4]) amounted to 0.29 nM; in assay [2] (setting [5]), 0.32 nM; in the assay with NCI-H441 cells (setting [6]), 0.37 nM; in assay [3] (setting [7]) it was 0.27 nM.

As for `CCn1c(-c2cc(C#C[C@]3(C)CCCN3C)cnc2[C@H](C)OC)c2c3cc(ccc31)-c1csc(n1)C[C@H](NC(=O)[C@H]1[C@H](C)[C@@H]1C)C(=O)N1CCC[C@H](N1)C(=O)OCC(C)(C)C2` (atropisomer, axis not shown; (Ra)) [Compound Z642], the IC50 is 0.4 nM in assay [1] (setting [4]), 0.65 nM in assay [2] (setting [5]), 0.36 nM in the assay with NCI-H441 cells (setting [6]) and 0.29 nM in assay [3] (setting [7]).
